The source of these data is ChEMBL document CHEMBL1138894, “Synthesis and biological investigation of S-aryl-S-DABO derivatives as HIV-1 inhibitors” (Bioorg Med Chem Lett, 2006).

One assay concerns MT4. In words: Cytotoxicity against MT4 cells by MTT assay. It is filed as functional. As to conditions: Homo sapiens.
The subject of assay [1] is Human immunodeficiency virus type 1 reverse transcriptase (Human immunodeficiency virus 1), Q72547 [K103N]. In words: Inhibition of HIV1 reverse transcriptase K103N mutant at 400uM.
Assay [2] relates to Human immunodeficiency virus type 1 reverse transcriptase (Human immunodeficiency virus 1), Q72547 [Y181I]. In words: Inhibition of HIV1 reverse transcriptase Y181I mutant at 400uM.
Assay [3] concerns the target Human immunodeficiency virus type 1 reverse transcriptase (Human immunodeficiency virus 1) (UniProt Q72547).
Assay [4] has the same target. In words: Inhibition of wild type HIV1 reverse transcriptase at 400uM.
The target is the same in assay [5]. Description: Selectivity index (CC50/EC50). In kind it is functional.

SMILES strings stand for the structures. The source made the active and inactive calls. The rule behind the calls is not given here.

By CC50 is commonly meant the concentration giving 50% cytotoxicity. A lower CC50 goes with harm at low concentration. For `O=C1Nc2ccc(Cl)cc2C(C#CC2CC2)(C(F)(F)F)O1` (single isomer, unassigned) [EFAVIRENZ], the CC50 in the assay on MT4 was > 0.32 µM.
For `Cc1cn([C@H]2C[C@H](N=[N+]=[N-])[C@@H](CO)O2)c(=O)[nH]c1=O` [ZIDOVUDINE], it took 3.7 µM to reach half-maximal cytotoxicity in the assay on MT4 (CC50).
Take `Cc1c(O)nc(Sc2ccc(C#N)cc2)nc1Cc1c(Cl)cccc1Cl`: the result in assay [1] and in assay [2] was inactive. Half-maximal cytotoxicity in the assay on MT4 (CC50) was put at 27.6 µM. The ID50 in assay [3] came to 23 µM.
For `COc1ccc(Sc2nc(O)c(C)c(Cc3c(Cl)cccc3Cl)n2)cc1`, the outcome in assay [1], in assay [2] and in assay [4] was inactive. Besides, the CC50 in the assay on MT4 is > 61.4 µM.
Regarding `Cc1c(O)nc(Sc2ccc(F)cc2F)nc1Cc1c(Cl)cccc1Cl`, the result in assay [1] and in assay [2] was inactive. For the same compound, the CC50 in the assay with MT4 is > 60.5 µM. In addition, in assay [3], the ID50 is 10 µM.
As to `COc1ccc(Sc2nc(O)c(C)c(Cc3c(F)cccc3F)n2)cc1`, the result in assay [1], in assay [2] and in assay [4] was inactive. For the same compound, the CC50 in the assay with MT4 came to 57.5 µM.
`Cc1c(O)nc(Sc2ccc(F)cc2F)nc1Cc1c(F)cccc1F`: the result in assay [1] and in assay [2] was inactive. Moreover, in the assay with MT4, the CC50 was > 65.8 µM. This compound displayed an ID50 in assay [3] of 30 µM.
For `COc1ccc(Sc2nc(O)c(C)c(Cc3c(Cl)cccc3Cl)n2)cn1`, the result in assay [1] and in assay [2] was inactive. For the same compound, the CC50 in the assay with MT4 is > 61.3 µM. In addition, in assay [3], the ID50 is 3.5 µM.
As for `Cc1c(O)nc(Sc2ccccc2)nc1Cc1c(F)cccc1F`, the result in assay [1] and in assay [2] was inactive. Besides, the CC50 in the assay on MT4 is > 72.7 µM. For the same compound, in assay [5], the Selectivity index was > 835. In assay [3], this compound gave an ID50 of 32 µM.
Take `Cc1c(O)nc(Sc2ccc(Cl)cc2)nc1Cc1c(F)cccc1F`: the outcome in assay [1] and in assay [2] was inactive. Also, the CC50 with MT4 is > 66.1 µM. Further, in assay [3], the ID50 was 22 µM.
On to `Cc1c(O)nc(Sc2ccccc2)nc1Cc1c(Cl)cccc1Cl`, for which the outcome in assay [1] and in assay [2] was inactive. The CC50 in the assay with MT4 is > 66.3 µM. In addition, the ID50 in assay [3] was found to be 36 µM.
Take `Cc1ccnc2c1NC(=O)c1cccnc1N2C1CC1` [NEVIRAPINE]: in the assay with MT4, the CC50 was > 7.5 µM.
